ChEMBL document CHEMBL5365420, “Kinetics, Thermodynamics, and Structural Effects of Quinoline-2-Carboxylates, Zinc-Binding Inhibitors of New Delhi Metallo-β-lactamase-1 Re-sensitizing Multidrug-Resistant Bacteria for Carbapenems” (J Med Chem, 2023)
Values after ≈ are worked out from the molar mass of the structure shown. Blank lines part the entries; values can stand above or below the molecule they belong to.

What was measured:
[1] = tested on: Escherichia coli; test: Antibacterial activity against clinical isolate Escherichia coli ST1012/10 expressing blaNDM-1 co-expressing blaTEM-1/blaCTX-M-15/blaOXA-1 and blaOXA-2 assessed as inhibition of bacterial growth measured after 20 hrs by broth microdilution assay; type: functional
[2] = tested on: Escherichia coli; test: Antibacterial activity against clinical isolate Escherichia coli K12 J53-ST10 696/17 expressing blaNDM-1 co-expressing blaCMY-4 assessed as inhibition of bacterial growth measured after 20 hrs by broth microdilution assay; type: functional
[3] = tested on: Klebsiella pneumoniae; test: Antibacterial activity against clinical isolate Klebsiella pneumoniae 62/07 expressing blaVIM-19 co-expressing blaSHV-1/blaCTX-M-14 and blaCMY-4 assessed as inhibition of bacterial growth measured after 20 hrs by broth microdilution assay; type: functional
[4] = tested on: Escherichia coli; test: Antibacterial activity against clinical isolate Escherichia coli 371/12 expressing blaNDM-7 co-expressing blaCTX-M-15 and blaOXA-1 assessed as inhibition of bacterial growth measured after 20 hrs by broth microdilution assay; type: functional
[5] = tested on: Klebsiella pneumoniae; test: Antibacterial activity against clinical isolate Klebsiella pneumoniae ST1493/10 expressing blaNDM-1 co-expressing blaCMY-2like/blaTEM-1/blaCTX-M-15/blaSHV-28/blaOXA-1 and blaOXA-9 assessed as inhibition of bacterial growth measured after 20 hrs by broth microdilution assay; type: functional
[6] = tested on: Klebsiella pneumoniae; test: Antibacterial activity against clinical isolate Klebsiella pneumoniae 50/20 expressing blaNDM-5 co-expressing blaTEM-1 and blaSHV-1 assessed as inhibition of bacterial growth measured after 20 hrs by broth microdilution assay; type: functional
[7] = tested on: Escherichia coli; test: Antibacterial activity against clinical isolate Escherichia coli K12 J53-ST10 684/18 expressing bla-NDM-1 co-expressing bla-CMY-2 and bla-OXA-10 assessed as inhibition of bacterial growth measured after 20 hrs by broth microdilution assay; type: functional
[8] = tested on: Acinetobacter baumannii; test: Antibacterial activity against clinical isolate Acinetobacter baumannii IC 19/09 expressing blaNDM-1 co-expressing blaOXA-64 assessed as inhibition of bacterial growth measured after 20 hrs by broth microdilution assay; type: functional
[9] = tested on: Escherichia coli; test: Antibacterial activity against clinical isolate Escherichia coli K12 J53-ST10 699/15 expressing blaNDM-1 assessed as inhibition of bacterial growth measured after 20 hrs by broth microdilution assay; type: functional
[10] = tested on: Klebsiella pneumoniae; test: Antibacterial activity against clinical isolate Klebsiella pneumoniae ST23213/19 expressing blaNDM-1 co-expressing blaOXA-48/blaSHV-11/blaCTX-M-15 and blaOXA-1 assessed as inhibition of bacterial growth measured after 20 hrs by broth microdilution assay; type: functional
[11] = tested on: Klebsiella pneumoniae; test: Antibacterial activity against clinical isolate Klebsiella pneumoniae 50/11 expressing blaNDM-1 co-expressing blaTEM-1/blaSHV-28/blaTEM-1/blaCTX-M-15 and blaOXA-1 assessed as inhibition of bacterial growth measured after 20 hrs by broth microdilution assay; type: functional
[12] = tested on: Escherichia coli; test: Antibacterial activity against clinical isolate Escherichia coli K12 J53-ST10 618/15 expressing blaNDM-1 assessed as inhibition of bacterial growth measured after 20 hrs by broth microdilution assay; type: functional
[13] = Inhibition of VIM-2 (unknown origin) incubated for 15 mins by absorbance based microplate reader analysis; parameters: species or system Bacteria
[14] = target: Histone deacetylase 1 (Homo sapiens) (UniProt Q13547); test: Inhibition of C-terminal 6His/FLAG-tagged human recombinant full-length HDAC1 (1 to 482(end) residues) at 10 uM using Boc-Lys-(Ac)-AMC as substrate incubated for 10 mins followed by substrate addition measured after 1 hr by fluorescence based analysis relative to control; conditions: time 70.0 min
[15] = tested on: Klebsiella pneumoniae; test: Antibacterial activity against clinical isolate Klebsiella pneumoniae 50/20 expressing blaNDM-5 co-expressing blaTEM-1 and blaSHV-1 assessed as meropenem MIC at 29.60 uM measured after 20 hrs by broth microdilution assay (reference value: 12 mg/L); type: functional; conditions: dose 29.6 µM
[16] = tested on: Escherichia coli; test: Antibacterial activity against clinical isolate Escherichia coli K12 J53-ST10 684/18 expressing blaNDM-1 co-expressing blaCMY-2 and blaOXA-10 assessed as meropenem MIC at 29.60 uM measured after 20 hrs by broth microdilution assay (reference value: 12 mg/L); type: functional; conditions: dose 29.6 µM
[17] = tested on: Klebsiella pneumoniae; test: Antibacterial activity against clinical isolate Klebsiella pneumoniae ST1493/10 expressing blaNDM-1 co-expressing blaCMY-2like/blaTEM-1/blaCTX-M-15/blaSHV-28/blaOXA-1 and blaOXA-9 assessed as meropenem MIC at 59.20 uM measured after 20 hrs by broth microdilution assay (reference value: 24 mg/L); type: functional; conditions: dose 59.2 µM
[18] = tested on: Klebsiella pneumoniae; test: Antibacterial activity against clinical isolate Klebsiella pneumoniae 62/07 expressing blaVIM-19 co-expressing blaSHV-1/blaCTX-M-14 and blaCMY-4 assessed as meropenem MIC at 29.60 uM measured after 20 hrs by broth microdilution assay (reference value: 12 mg/L); type: functional; conditions: dose 29.6 µM
[19] = tested on: Escherichia coli; test: Antibacterial activity against clinical isolate Escherichia coli K12 J53-ST10 696/17 expressing blaNDM-1 co-expressing blaCMY-4 assessed as meropenem MIC at 29.60 uM measured after 20 hrs by broth microdilution assay (reference value: 12 mg/L); type: functional; conditions: dose 29.6 µM
[20] = target: Carbonic anhydrase 2 (Homo sapiens) (UniProt P00918); test: Inhibition of human CA2 at 10 uM using pNPA as substrate preincubated for 15 mins followed by substrate by absorbance based analysis relative to control
[21] = tested on: Escherichia coli; test: Antibacterial activity against clinical isolate Escherichia coli 371/12 expressing blaNDM-7 co-expressing blaCTX-M-15 and blaOXA-1 assessed as meropenem MIC at 59.20 uM measured after 20 hrs by broth microdilution assay (reference value: 24 mg/L); type: functional; conditions: dose 59.2 µM
[22] = tested on: Klebsiella pneumoniae; test: Antibacterial activity against clinical isolate Klebsiella pneumoniae 62/07 expressing blaVIM-19 co-expressing blaSHV-1/blaCTX-M-14 and blaCMY-4 assessed as meropenem MIC at 59.20 uM measured after 20 hrs by broth microdilution assay (reference value: 24 mg/L); type: functional; conditions: dose 59.2 µM
[23] = Inhibition of IMP-1 (unknown origin) expressed in Escherichia coli BL21-DE3 incubated for 15 mins by absorbance based microplate reader analysis; parameters: species or system Bacteria
[24] = tested on: Escherichia coli; test: Antibacterial activity against clinical isolate Escherichia coli K12 J53-ST10 618/15 expressing blaNDM-1 assessed as meropenem MIC at 59.20 uM measured after 20 hrs by broth microdilution assay (reference value: 24 mg/L); type: functional; conditions: dose 59.2 µM
[25] = target: T1, 72 kDa type IV collagenase (Homo sapiens, UniProt P08253); test: Binding affinity to human recombinant MMP-2 CD assessed as inhibition constant using OMNIMMP as substrate incubated for 30 mins by fluorescence based analysis
Target sequence in this assay (P08253 whole entry): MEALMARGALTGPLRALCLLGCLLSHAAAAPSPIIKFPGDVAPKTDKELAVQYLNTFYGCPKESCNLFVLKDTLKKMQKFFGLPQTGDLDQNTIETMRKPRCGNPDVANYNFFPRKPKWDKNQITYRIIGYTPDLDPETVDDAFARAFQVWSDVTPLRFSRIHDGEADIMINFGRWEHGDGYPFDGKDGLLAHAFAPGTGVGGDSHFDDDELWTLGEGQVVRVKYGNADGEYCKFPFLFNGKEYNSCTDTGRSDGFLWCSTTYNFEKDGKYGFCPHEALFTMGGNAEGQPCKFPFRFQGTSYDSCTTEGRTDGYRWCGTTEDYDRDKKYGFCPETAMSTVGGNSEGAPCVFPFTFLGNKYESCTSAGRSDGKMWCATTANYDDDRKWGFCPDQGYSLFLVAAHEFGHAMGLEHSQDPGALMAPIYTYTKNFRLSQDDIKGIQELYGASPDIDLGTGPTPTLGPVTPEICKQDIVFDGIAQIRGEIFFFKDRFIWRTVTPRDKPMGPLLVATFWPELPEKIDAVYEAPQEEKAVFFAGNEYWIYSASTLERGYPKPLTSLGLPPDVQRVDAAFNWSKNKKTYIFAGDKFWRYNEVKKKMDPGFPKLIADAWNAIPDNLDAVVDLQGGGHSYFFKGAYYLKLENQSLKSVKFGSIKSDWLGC

[26] = tested on: Escherichia coli; test: Antibacterial activity against clinical isolate Escherichia coli K12 J53-ST10 684/18 expressing blaNDM-1 co-expressing blaCMY-2 and blaOXA-10 assessed as meropenem MIC at 59.20 uM measured after 20 hrs by broth microdilution assay (reference value: 24 mg/L); type: functional; conditions: dose 59.2 µM
[27] = tested on: Acinetobacter baumannii; test: Antibacterial activity against clinical isolate Acinetobacter baumannii IC 19/09 expressing blaNDM-1 co-expressing blaOXA-64 assessed as meropenem MIC at 59.20 uM measured after 20 hrs by broth microdilution assay (reference value: 24 mg/L); type: functional; conditions: dose 59.2 µM
[28] = tested on: Escherichia coli; test: Antibacterial activity against clinical isolate Escherichia coli ST1012/10 expressing blaNDM-1 co-expressing blaTEM-1/blaCTX-M-15/blaOXA-1 and blaOXA-2 assessed as meropenem MIC at 29.60 uM measured after 20 hrs by broth microdilution assay (reference value: 12 mg/L); type: functional; conditions: dose 29.6 µM
[29] = tested on: Klebsiella pneumoniae; test: Antibacterial activity against clinical isolate Klebsiella pneumoniae ST23213/19 expressing blaNDM-1 co-expressing blaOXA-48/blaSHV-11/blaCTX-M-15 and blaOXA-1 assessed as meropenem MIC at 59.20 uM measured after 20 hrs by broth microdilution assay (reference value: 24 mg/L); type: functional; conditions: dose 59.2 µM
[30] = tested on: Escherichia coli; test: Antibacterial activity against clinical isolate Escherichia coli K12 J53-ST10 696/17 expressing blaNDM-1 co-expressing blaCMY-4 assessed as meropenem MIC at 59.20 uM measured after 20 hrs by broth microdilution assay (reference value: 24 mg/L); type: functional; conditions: dose 59.2 µM
[31] = target: T1, 72 kDa type IV collagenase; test: Inhibition of human recombinant MMP-2 CD at 10 uM using OMNIMMP as substrate incubated for 30 mins by fluorescence based analysis relative to control
Target sequence in this assay (P08253 110-660 limits assumed): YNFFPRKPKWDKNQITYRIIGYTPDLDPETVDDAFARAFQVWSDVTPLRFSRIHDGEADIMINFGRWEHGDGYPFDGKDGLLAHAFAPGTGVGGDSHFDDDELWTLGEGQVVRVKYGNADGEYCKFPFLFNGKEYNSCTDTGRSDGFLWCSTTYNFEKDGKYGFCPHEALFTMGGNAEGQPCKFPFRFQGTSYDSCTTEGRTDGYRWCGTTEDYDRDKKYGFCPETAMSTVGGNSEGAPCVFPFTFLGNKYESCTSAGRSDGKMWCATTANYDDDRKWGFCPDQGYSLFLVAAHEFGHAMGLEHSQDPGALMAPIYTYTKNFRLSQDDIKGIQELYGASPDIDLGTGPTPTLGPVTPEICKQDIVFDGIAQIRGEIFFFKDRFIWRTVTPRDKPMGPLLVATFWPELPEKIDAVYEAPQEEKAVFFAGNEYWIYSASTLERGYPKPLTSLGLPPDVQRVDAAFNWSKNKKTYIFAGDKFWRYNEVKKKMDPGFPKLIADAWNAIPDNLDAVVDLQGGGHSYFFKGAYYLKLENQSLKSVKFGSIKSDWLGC

[32] = tested on: Escherichia coli; test: Antibacterial activity against clinical isolate Escherichia coli K12 J53-ST10 618/15 expressing blaNDM-1 assessed as meropenem MIC at 29.60 uM measured after 20 hrs by broth microdilution assay (reference value: 12 mg/L); type: functional; conditions: dose 29.6 µM
[33] = tested on: Klebsiella pneumoniae; test: Antibacterial activity against clinical isolate Klebsiella pneumoniae 50/11 expressing blaNDM-1 co-expressing blaTEM-1/blaSHV-28/blaTEM-1/blaCTX-M-15 and blaOXA-1 assessed as meropenem MIC at 59.20 uM measured after 20 hrs by broth microdilution assay (reference value: 24 mg/L); type: functional; conditions: dose 59.2 µM
[34] = tested on: Escherichia coli; test: Antibacterial activity against clinical isolate Escherichia coli ST1012/10 expressing blaNDM-1 co-expressing blaTEM-1/blaCTX-M-15/blaOXA-1 and blaOXA-2 assessed as meropenem MIC at 59.20 uM measured after 20 hrs by broth microdilution assay (reference value: 24 mg/L); type: functional; conditions: dose 59.2 µM
[35] = tested on: Klebsiella pneumoniae; test: Antibacterial activity against clinical isolate Klebsiella pneumoniae ST1493/10 expressing blaNDM-1 co-expressing blaCMY-2like/blaTEM-1/blaCTX-M-15/blaSHV-28/blaOXA-1 and blaOXA-9 assessed as meropenem MIC at 29.60 uM measured after 20 hrs by broth microdilution assay (reference value: 12 mg/L); type: functional; conditions: dose 29.6 µM
[36] = tested on: Klebsiella pneumoniae; test: Antibacterial activity against clinical isolate Klebsiella pneumoniae 50/20 expressing blaNDM-5 co-expressing blaTEM-1 and blaSHV-1 assessed as meropenem MIC at 59.20 uM measured after 20 hrs by broth microdilution assay (reference value: 24 mg/L); type: functional; conditions: dose 59.2 µM
[37] = tested on: Klebsiella pneumoniae; test: Antibacterial activity against clinical isolate Klebsiella pneumoniae 50/11 expressing blaNDM-1 co-expressing blaTEM-1/blaSHV-28/blaTEM-1/blaCTX-M-15 and blaOXA-1 assessed as meropenem MIC at 29.60 uM measured after 20 hrs by broth microdilution assay (reference value: 12 mg/L); type: functional; conditions: dose 29.6 µM
[38] = tested on: Escherichia coli; test: Antibacterial activity against clinical isolate Escherichia coli K12 J53-ST10 699/15 expressing blaNDM-1 assessed as meropenem MIC at 59.20 uM measured after 20 hrs by broth microdilution assay (reference value: 24 mg/L); type: functional; conditions: dose 59.2 µM
[39] = tested on: Acinetobacter baumannii; test: Antibacterial activity against clinical isolate Acinetobacter baumannii IC 19/09 expressing blaNDM-1 co-expressing blaOXA-64 assessed as meropenem MIC at 29.60 uM measured after 20 hrs by broth microdilution assay (reference value: 12 mg/L); type: functional; conditions: dose 29.6 µM
[40] = tested on: Escherichia coli; test: Antibacterial activity against clinical isolate Escherichia coli 371/12 expressing blaNDM-7 co-expressing blaCTX-M-15 and blaOXA-1 assessed as meropenem MIC at 29.60 uM measured after 20 hrs by broth microdilution assay (reference value: 12 mg/L); type: functional; conditions: dose 29.6 µM
[41] = tested on: Escherichia coli; test: Antibacterial activity against clinical isolate Escherichia coli K12 J53-ST10 699/15 expressing blaNDM-1 assessed as meropenem MIC at 29.60 uM measured after 20 hrs by broth microdilution assay (reference value: 12 mg/L); type: functional; conditions: dose 29.6 µM
[42] = tested on: Klebsiella pneumoniae; test: Antibacterial activity against clinical isolate Klebsiella pneumoniae ST23213/19 expressing blaNDM-1 co-expressing blaOXA-48/blaSHV-11/blaCTX-M-15 and blaOXA-1 assessed as meropenem MIC at 29.60 uM measured after 20 hrs by broth microdilution assay (reference value: 12 mg/L); type: functional; conditions: dose 29.6 µM

Histone deacetylase 1 (Homo sapiens), sequence (Q13547 whole entry): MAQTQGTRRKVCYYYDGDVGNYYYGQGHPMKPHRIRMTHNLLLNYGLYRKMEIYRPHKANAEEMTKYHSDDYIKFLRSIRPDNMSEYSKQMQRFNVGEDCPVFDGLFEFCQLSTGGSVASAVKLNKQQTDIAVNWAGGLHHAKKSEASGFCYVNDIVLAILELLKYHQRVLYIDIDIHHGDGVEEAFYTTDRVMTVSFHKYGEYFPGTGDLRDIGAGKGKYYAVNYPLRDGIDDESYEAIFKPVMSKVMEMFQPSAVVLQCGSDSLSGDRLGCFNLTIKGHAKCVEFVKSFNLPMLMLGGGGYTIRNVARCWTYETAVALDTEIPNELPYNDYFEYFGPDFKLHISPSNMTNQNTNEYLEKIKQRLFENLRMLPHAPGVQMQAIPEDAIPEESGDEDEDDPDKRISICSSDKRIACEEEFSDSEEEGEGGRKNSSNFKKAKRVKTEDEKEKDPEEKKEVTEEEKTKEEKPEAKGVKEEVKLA

SMILES: C[C@@H](O)[C@H]1C(=O)N2C(C(=O)O)=C(S[C@@H]3CN[C@H](C(=O)N(C)C)C3)[C@H](C)[C@H]12 [MEROPENEM]
MIC [1]: 128 µg/mL (≈ 334 µM)
MIC [2]: 16 µg/mL (≈ 41.7 µM)
MIC [3]: 128 µg/mL (≈ 334 µM)
MIC [4]: 64 µg/mL (≈ 167 µM)
MIC [5]: 128 µg/mL (≈ 334 µM)
MIC [6]: 64 µg/mL (≈ 167 µM)
MIC [7]: 64 µg/mL (≈ 167 µM)
MIC [8]: > 128 µg/mL
MIC [9]: 32 µg/mL (≈ 83.4 µM)
MIC [10]: > 128 µg/mL
MIC [11]: 64 µg/mL (≈ 167 µM)
MIC [12]: 32 µg/mL (≈ 83.4 µM)

IC50 [13]: 610 nM
inhibition [14]: < 5%
MIC [15]: 2 µg/mL
MIC [16]: 0.25 µg/mL
MIC [17]: 1 µg/mL
MIC [18]: 8 µg/mL
MIC [19]: ≤ 0.125 µg/mL
inhibition [20]: < 5%
MIC [21]: ≤ 0.125 µg/mL
MIC [22]: 0.5 µg/mL
IC50 [23]: 250 nM
MIC [24]: ≤ 0.125 µg/mL
Ki [25]: 6920 nM
MIC [26]: ≤ 0.125 µg/mL
MIC [27]: 1 µg/mL
MIC [28]: 1 µg/mL
MIC [29]: 16 µg/mL
MIC [30]: ≤ 0.125 µg/mL
inhibition [31]: > 90%
MIC [32]: ≤ 0.125 µg/mL
MIC [33]: ≤ 0.125 µg/mL
MIC [34]: ≤ 0.125 µg/mL
MIC [35]: 4 µg/mL
MIC [36]: ≤ 0.125 µg/mL
MIC [37]: 0.5 µg/mL
MIC [38]: ≤ 0.125 µg/mL
MIC [39]: 8 µg/mL
MIC [40]: 32 µg/mL
MIC [41]: 1 µg/mL
MIC [42]: 32 µg/mL
SMILES: O=C(O)c1cc(-c2ccccc2)c2cccc(NS(=O)(=O)c3ccccn3)c2n1
